This note sets out measurements from US10322123B2, “Compound for anti-cancer therapy that acts by targeting GOF mutant P53 and stimulates P73 to restore the P53 pathway signaling” (The Penn State Research Foundation, priority 2014, dated 2019).

The test system of one data set is p21, Puma and Noxa mRNA. Description: qRT-PCR of p53 target gene mRNA. Type of data set: cell-based, human. The text has this: (§1) Total RNA was isolated from cells using RNeasy mini kit (Qiagen, USA) by the recommended protocol. Reverse transcription used SuperScript II first-strand synthesis system (Invitrogen, USA) with random primers. qRT-PCR reactions used SYBR green master mix with the Real-Time PCR Detection systems (Bio-Rad, USA). Primers for qRT-PCR are (forward) 5′-[…]-3′ (SEQ ID NO: 1) and (reverse) 5′-[…]-3′ (SEQ ID NO: 2) for p53, (forward) 5′-TGTCCGTCAGAACCCATG-3′ (SEQ ID NO: 3) and (reverse) 5′-[…]-3′ (SEQ ID NO: 4) for p21, (forward) 5′-[…]-3′ (SEQ ID NO: 5) and (reverse) 5′-[…]-3′ (SEQ ID NO: 6) for Puma, (forward) 5′-[…]-3′ (SEQ ID NO: 7) and (reverse) 5′-[…]-3′ (SEQ ID NO: 8) for Noxa, (forward) 5′-CTGGGCTACACTGAGCACC-3′ (SEQ ID NO: 9) and (reverse) 5′-[…]-3′ (SEQ ID NO: 10) for Gapdh. Target gene expression levels were normalized with Gapdh.

A further data set has as its system p21, Puma, DR5 and Noxa. The data set is described as follows: Western blot of p53 target gene proteins. Type of data set: cell-based, human. How it is done:
(§2) Proteins were extracted from cells and electrophoresed through 4-12% SDS-PAGE then transferred to PVDF membranes. The primary antibodies indicated in the figures were incubated with the transferred PVDF in blocking buffer at 4° C. overnight. Antibody binding was detected on PVDF with appropriate IRDye-secondary antibodies (LI-COR Biosciences, USA) by the ODYSSEY infrared imaging system.
Background: A western blot detects proteins with antibodies after separation by electrophoresis.

The test system of the next data set is RXF393 cells. The data set is described as follows: Flow cytometry sub-G1 DNA content. The data set is classed as cell-based, human. The settings on record: 50 μM, 8 hours. How it is done:
(§3) Cells were treated with NSC59984 or other drugs. Seventy-two hours after treatment, the cells were fixed with ethanol and stained with Propidium Iodide (PI). The samples were then subjected to analysis by an Epics Elite flow cytometer to measure the DNA content of the stained cells.
A general note: A flow cytometer gives signals particle by particle.

The test system of data set [1] is cancer cells. Description: Flow cytometry sub-G1 DNA content. Type of data set: cell-based, human. Conditions: 72 hr. As to the method:
as §3

The subject of the next data set is normal cells. Description: Flow cytometry sub-G1 DNA content. Type of data set: cell-based, human. The settings on record: 25 μM, 72 hr. As to the method:
as §3

The subject of data set [2] is cancer cells. The data set is described as follows: Colony formation assay. Type of data set: cell-based, human. The settings on record: treated 3 days, then drug-free medium two weeks. As to the method: Franken N A, et al., Nat Protoc 2006; 1: 2315-9). Cancer cells were plated at 500 cells/well on 6-well plate, and then treated with NSC59984 next day. At 3 days after NSC59984 treatment, cancer cells were cultured with drug-free complete medium for two weeks with fresh medium changed every 3 days. Cells were fixed with 10% formalin and stained with 0.05% crystal violet at the end of two weeks period of cell culture.

For a further data set, the system named is γH2AX. The data set is described as follows: Genotoxicity measured by γH2AX. Type of data set: cell-based, human. As to the method:
as §2

Data set [3] concerns mutant p53. Type of data set: cell-based, human. As to the method:
The primary antibodies indicated in the figures were incubated with the transferred PVDF in blocking buffer at 4° C. overnight. Antibody binding was detected on PVDF with appropriate IRDye-secondary antibodies (LI-COR Biosciences, USA) by the ODYSSEY infrared imaging system.

Data set [4] relates to mutant p53. The data set is described as follows: Ubiquitination of mutant p53 (immunoprecipitation). Type of data set: cell-based, human. The settings on record: cancer cells treated with NSC59984 and MG132, 16 hr. How it is done:
Five hundred micrograms of cell lysate were incubated with 2 μg of antibody overnight at 4° C. Then, 25 μl of protein A-Sepharose beads were added to the lysates. The immunoprecipitated proteins were eluted from protein A-Sepharose beads by boiling with 2× sample buffer and subjected to SDS-PAGE.
as §2

In the next data set the test system is mutant p53 mRNA. The data set is described as follows: Mutant p53 mRNA qRT-PCR. The settings on record: SW480 cells, 3 hr or 16 hr, compared to DMSO control. The data set is classed as cell-based, human.
Source text: as §1

A further data set concerns DLD-1 xenograft tumors. The data set is described as follows: In vivo anti-tumor assay, xenograft. The arrangement: species or system mice. The settings on record: 45 mg/kg i.p. every 5 days. How it is done:
(§4) CRL nude mice (female, 4-6 weeks old) were inoculated s.c. in the opposite flanks with 5 million DLD-1 or p73 knock-down DLD-1 cells in an equal volume of martrigel. Treatment with NSC59984 (i.p. injection) was initiated when the tumor masses reached a size of 3-5 mm. NSC59984 (45 mg/kg) was injected by i.p. route every 5 days. Fifteen days after treatment, the mice were euthanized using an institutional animal care and use committee-approved animal protocol.

In data set [5] the test system is p73 knock-down DLD-1 xenograft tumors. Description: In vivo anti-tumor assay, xenograft. Also noted: species or system mice. The settings on record: 45 mg/kg i.p. every 5 days. As to the method: as §4
Data set [6] is described as follows: Body weight and toxicity in xenograft mice. The data set is classed as in vivo. The settings on record: 45 mg/kg i.p. every 5 days. As to the method:
as §4

Where [7] appears, read: HCT116 and p53-null HCT116 cells.

Turning to `CN1CCN(C(=O)/C=C/c2ccc([N+](=O)[O-])o2)CC1` [NSC59984, (E)-1-(4-methylpiperazin-1-yl)-3-(5-nitrofuran-2-yl)prop-2-en-1-one], the “Noxa mRNA” value with p21, Puma and Noxa mRNA (25 μM in HCT116 and 12 μM in p53-null HCT116 cells) is listed as “slightly increased”. In addition, the “Puma and p21 mRNA level” value in the data set with p21, Puma and Noxa mRNA (setting [7]) was “not up-regulated”. Also, in the data set with p21, Puma and Noxa mRNA (SW480 and DLD-1 cells, 3 hours, dose-dependent), the “mRNA levels of p21, Noxa and Puma” value is reported as “significantly increased”. The p21 protein entry in the data set on p21, Puma, DR5 and Noxa (setting [7]) is listed as “up-regulated”. In the data set on p21, Puma, DR5 and Noxa (setting [7]), the “protein levels of Puma, DR5 and Noxa” value is “not up-regulated”. Further, the “protein levels of p21, Puma, Noxa and DR5” value with p21, Puma, DR5 and Noxa (SW480 and DLD-1 cells, increasing doses, 8 hr) is on record as “significantly up-regulated”. The “up-regulation of endogenous p21, Puma, DR5 and Noxa proteins” value with p21, Puma, DR5 and Noxa (p73 knock-down DLD-1 cells, 8 hr) was “reduced by p73 knock-down”. Besides, the “Sub-G1 DNA content” value with RXF393 cells was 8.7%. For the same compound, the “sub-G1 DNA content” value in the data set with cancer cells [1] (25 μM) is on record as 26-56%. In addition, in the data set with cancer cells [1] (50 μM), the “cells with sub-G1 content” value is on record as 55-93%. In addition, in the data set with normal cells, the “sub-G1 DNA content increase” value is on record as “not in normal cells”. In addition, the colony numbers result in the data set with cancer cells [2] is recorded as “significantly reduced”. The γH2AX result with γH2AX (HCT116 cells, 8 hours, 12 μM) is reported as “increase of γH2AX”; with γH2AX (SW480 and DLD-1 cancer cells, within 24 hr, up to 50 μM), “No γH2AX was found”. In the data set with mutant p53 [3] (DLD-1 and RXF393 cells, 50 μM), the “total mutant p53 protein degraded” value is recorded as 25-50%. The “mutant p53 protein level” value in the data set on mutant p53 [3] (SW480, DLD-1, Hop92 and RXF393 cells, 8 hr, dose-dependent) was “down-regulated”. Further, the “ubiquitination of mutant p53” value in the data set on mutant p53 [4] is on record as “increased ubiquitination”. Also, the “p53 mRNA” value in the data set with mutant p53 mRNA was “not decreased”. Also, the xenograft tumor growth result with DLD-1 xenograft tumors (compared to DMSO control) is reported as “significantly repressed”. Besides, the results for the “tumor weight reduced by” value (in the data set with DLD-1 xenograft tumors (day 15); in data set [5] (day 15)) were 34% and 18%, respectively. In addition, the tumor growth suppression result in data set [5] was “not observed”. For the same compound, the mouse body weights entry in data set [6] is on record as “did not cause an obvious change”. For the same compound, the “toxic effect in mice” value in data set [6] (tested dose) is “no overt toxic effect”.
